What was measured:
[1] = target: T1, CYP26B (P450RAI-2) (Homo sapiens, UniProt Q9NR63); experiment: [3H]-RA-metabolism inhibition assay using microsomes from Hela-CYP26B (stable) cells; settings: 5 μg microsomes, NADPH, 1 hour at 37° C., water-soluble metabolites
T1 sequence (Q9NR63 1-512): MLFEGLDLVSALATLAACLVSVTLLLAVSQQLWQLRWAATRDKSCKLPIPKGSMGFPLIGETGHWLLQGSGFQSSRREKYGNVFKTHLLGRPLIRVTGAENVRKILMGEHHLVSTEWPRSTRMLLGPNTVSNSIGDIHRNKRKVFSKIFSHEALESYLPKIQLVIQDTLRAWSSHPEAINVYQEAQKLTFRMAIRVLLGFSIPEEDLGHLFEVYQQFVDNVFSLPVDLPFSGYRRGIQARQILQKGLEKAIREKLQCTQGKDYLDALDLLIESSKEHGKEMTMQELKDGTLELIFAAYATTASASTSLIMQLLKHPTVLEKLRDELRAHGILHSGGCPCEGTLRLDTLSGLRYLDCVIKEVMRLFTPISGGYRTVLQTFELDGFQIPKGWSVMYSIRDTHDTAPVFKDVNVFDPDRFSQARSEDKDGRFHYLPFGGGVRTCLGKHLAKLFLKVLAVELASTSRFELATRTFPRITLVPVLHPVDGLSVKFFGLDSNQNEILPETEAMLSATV
Procedure: [^3H]-RA-metabolism inhibition assay was carried outusing microsomes prepared from Hela-CYP26B (stable) cells. […] The reaction was started by adding NADPH for 1 hour at 37° C. and then total reinoids were extracted using Bligh-Dyer procedure and water-soluble metabolites counted. […] Ketoconazol is an inhibitor of CYP26B.

[2] = system: P450RAI-2 transcripts; experiment: Induction of P450RAI-2 transcripts in human cell lines (Northern blot, RT-PCR); format: cell-based; settings: MCF-7 cells, 10^-6 M retinoid, 12 hours, northern blot
Source text: HPK1a-ras (ras-transformed human keratinocyte), COS-1 (African green monkey kidney and V79 cells (Chinese Hamster lung) were maintained in DMEM supplemented with 10% FBS (5% for V79). WTE (human non-small cell lung carcinoma and SW900 (human non-small cell lung carcinoma) cells were maintained in RPMI supplemented with 10% FBS. SK-Luci-6 (human non-small cell lung carcinoma) and SK-MES-1 (human non-small cell lung carcinoma) cells in RPMI with 5% FBS. NB4 (human acute prmyelocytic leukemia-serived) cells were maintained in RPMI supplemented with 10% FBS and gentamicin ([…]) HeLa cells (human cervical carcinoma) were maintained in MEM supplemented with 10% FBS. Previous cell lines were supplemented with penicillin (50 units/ml) streptomycin (50 ug/ml) and fungizone (0.1% final concentration). MCF-7 cells (human breast epithelial adenocarcinoma) were grown in MEM supplemented with 10% FBS, insulin (10 ng/ml), sodium pyruvate (0.5 mM), non-essential amino acids (100 nM), L-glutamine (2 mM), penicillin (5 ug.ml), streptomycin (5 ug/ml), fungizone (200 ng/ml), and gentamicin ([…]). All reagents were supplied by Life Technologies, NY. Cells lines were maintained at 37° C. in an atmosphere of 5% CO2 and 95% air.
Gels were photographed under ultraviolet light and then blotted onto Hybond ECL nitrocellulose membrane (Amersham Pharmacia Biotech, UK) and fixed to the membrane by baking at 80° C. for 2 hours under vacuum. […] Full length P450RAI-1 and P450RAI-2 cDNA were labeled with α-[^32P]dATP using Prime-A-Gene Labeling System (Promega, WI). The blot was washed two times for 15 minutes in 2×SSC, 0.1% SDS at room temperature then for 15 minutes at 60° C. in 0.1×SSC, and 0.1% SDS and exposed at −70° C. for 19 hours to Kodak X-Omat AR film (Eastman Kodak Company, NY).
The regulation of P450RAI-2 expression by various retinoids was checked in three different human cell lines, SKMES, CALU-1 and MCF-7. […] The blot was washed as follows: 2×SSPE & 0.1% SDS two washes of 5 minutes each; 1×SSPE & 0.1% SDS one wash of 15 minutes at 65° C.; 0.1×SSPE & 0.1×SDS one wash of 15 minutes at 65° C.
The blot was washed as follows: 2×SSC & 0.1% SDS two washes of 5 minutes each at room temperature; 1×SSC & 0.1% SDS one wash of 15 minutes at 65° C.; 0.1×SSC & 0.1% SDS three washes of 15 minutes each at 65° C.
The blot was washed as follows: 2×SSPE & 0.1% SDS two washes of 5 minutes each; 1×SSPE & 0.1% SDS one wash of 15 minutes at 65° C.; 0.1×SSPE & 0.1×SDS one wash of 15 minutes at 65° C.
The final primer concentrations were 45 μM for the P450RAI-2 primers and 11.25 μM for the GAPDH-specific primers.

[3] = target: T2, P450RAI-1 (Homo sapiens, UniProt O43174); experiment: Competitive inhibition of [3H]all-trans-RA metabolism in COS-1 cells transfected with pcDNA3.1-P450RAI-1; format: cell-based; parameters: expressed in transfected cells; host or cells: COS-1 (African green monkey kidney), transient; settings: COS-1 cells expressing P450RAI-1, 2 nM [3H]all-trans-RA
T2 sequence (O43174 1-497): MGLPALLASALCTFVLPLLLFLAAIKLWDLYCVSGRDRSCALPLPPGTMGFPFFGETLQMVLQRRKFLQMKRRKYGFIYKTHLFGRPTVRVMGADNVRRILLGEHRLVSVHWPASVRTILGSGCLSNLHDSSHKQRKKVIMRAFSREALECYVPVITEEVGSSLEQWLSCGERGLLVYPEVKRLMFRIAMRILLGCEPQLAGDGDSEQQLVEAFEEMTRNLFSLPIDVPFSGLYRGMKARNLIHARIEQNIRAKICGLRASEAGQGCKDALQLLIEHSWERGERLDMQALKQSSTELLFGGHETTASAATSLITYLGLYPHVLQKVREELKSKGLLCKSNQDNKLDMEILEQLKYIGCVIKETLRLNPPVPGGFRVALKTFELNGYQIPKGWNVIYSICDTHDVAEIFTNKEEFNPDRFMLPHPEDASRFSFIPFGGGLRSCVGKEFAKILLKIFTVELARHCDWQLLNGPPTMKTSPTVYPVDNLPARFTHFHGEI
Procedure: COS-1 cells were transfected with either pcDNA3.1-P450RAI-1 or pcDNA3.1-P450RAI-2 in 6-well tissue culture plates as described above. 48 hours post-transfection cells were harvested, pooled, washed with DMEM medium and replated into duplicate 48-well plates with 5×10^5 cells per well.

[4] = target: T3, P450RAI-2 (Homo sapiens, UniProt Q9NR63); experiment: Competitive inhibition of [3H]all-trans-RA metabolism in COS-1 cells transfected with pcDNA3.1-P450RAI-2; format: cell-based; parameters: The full-length human P450RAI-2 cDNA was cloned into the eukaryotic expression vector pcDNA 3.1; expressed in transfected cells; host or cells: COS-1 (African green monkey kidney), transient; settings: COS-1 cells expressing P450RAI-2, 2 nM [3H]all-trans-RA
T3 sequence (Q9NR63 1-512): T1 sequence (Q9NR63 1-512)
Source text: COS-1 cells were transfected with either pcDNA3.1-P450RAI-1 or pcDNA3.1-P450RAI-2 in 6-well tissue culture plates as described above.

CC1=C(/C=C/C(C)=C/C=C/C(C)=C\C(=O)O)C(C)(C)CCC1 [13-cis-RA, 13-cis retinoic acid]
Competition of [3H]-RA metabolism in microsomes [1]: did not compete at lower concentrations
Induction of P450RAI-2 expression [2]: induced
Effectiveness as competitor of all-trans-RA metabolism [3]: less effective than all-trans-RA
Effectiveness as competitor of all-trans-RA metabolism [4]: less effective than all-trans-RA

— patent US7579329B2, “P450RAI-2 (P450 cytochrome 26B), encoding nucleic acid molecules and methods and uses thereof” (Cytochroma Inc., priority 1999, dated 2009)
